According to ChEMBL document CHEMBL4359915, “Design, synthesis and biological evaluation of novel diazaspiro[4.5]decan-1-one derivatives as potential chitin synthase inhibitors and antifungal agents” (Eur J Med Chem, 2019):
In brackets after ≈: the same amount, converted by molar mass.

Columns and labels:
Candida tropicalis = experiment: Inhibition of Candida tropicalis ATCC 750 chitin synthase at 300 ug/ml using UDP-GlcNAc as substrate relative to control
Candida albicans [1] = experiment: Antifungal activity against Candida albicans ATCC 76615 assessed as growth inhibition measured after 24 hrs by two-fold broth dilution method; format: functional; details: ATCC 76615, 24 h
Aspergillus fumigatus = experiment: Antifungal activity against Aspergillus fumigatus GIMCC 3.19 assessed as growth inhibition measured after 24 hrs by two-fold broth dilution method; format: functional; details: GIMCC 3.19, 24 h
Candida albicans [2] = experiment: Antifungal activity against Candida albicans ATCC 90023 assessed as growth inhibition measured after 24 hrs by two-fold broth dilution method; format: functional; details: ATCC 90023, 24 h
Cryptococcus neoformans = experiment: Antifungal activity against Cryptococcus neoformans ATCC 32719 assessed as growth inhibition measured after 24 hrs by two-fold broth dilution method; format: functional; details: ATCC 32719, 24 h
Aspergillus flavus = experiment: Antifungal activity against Aspergillus flavus ATCC 16870 assessed as growth inhibition measured after 24 hrs by two-fold broth dilution method; format: functional; details: ATCC 16870, 24 h
Staphylococcus aureus [3] = experiment: Antibacterial activity against methicillin-resistant Staphylococcus aureus N315 assessed as growth inhibition measured after 24 hrs by two-fold broth dilution method; format: functional; details: N315, 24 h
Staphylococcus aureus [4] = experiment: Antibacterial activity against Staphylococcus aureus ATCC 25923 assessed as growth inhibition measured after 24 hrs by two-fold broth dilution method; format: functional; details: ATCC 25923, 24 h
Bacillus spizizenii = experiment: Antibacterial activity against Bacillus subtilis ATCC 6633 assessed as growth inhibition measured after 24 hrs by two-fold broth dilution method; format: functional; details: ATCC 6633, 24 h
Escherichia coli = experiment: Antibacterial activity against Escherichia coli JM 109 assessed as growth inhibition measured after 24 hrs by two-fold broth dilution method; format: functional; details: JM 109, 24 h
Pseudomonas aeruginosa = experiment: Antibacterial activity against Pseudomonas aeruginosa ATCC 9027 assessed as growth inhibition measured after 24 hrs by two-fold broth dilution method; format: functional; details: ATCC 9027, 24 h
Proteus vulgaris = experiment: Antibacterial activity against Bacillus proteus ATCC 8427 assessed as growth inhibition measured after 24 hrs by two-fold broth dilution method; format: functional; details: ATCC 8427, 24 h
[5] = Inhibition of Candida tropicalis ATCC 750 chitin synthase using UDP-GlcNAc as substrate

Row | Structure (SMILES) | inhibition (Candida tropicalis) [%] | MIC (Candida albicans [1]) [µM] | MIC (Aspergillus fumigatus) [µM] | MIC (Candida albicans [2]) [µM] | MIC (Cryptococcus neoformans) [µM] | MIC (Aspergillus flavus) [µM] | MIC (Staphylococcus aureus [3]) [µM] | MIC (Staphylococcus aureus [4]) [µM] | MIC (Bacillus spizizenii) [µM] | MIC (Escherichia coli) [µM] | MIC (Pseudomonas aeruginosa) [µM] | MIC (Proteus vulgaris) [µM] | IC50 [5] [µM]
1 | O=C(Nc1ccc(F)c(F)c1)[C@H](O)[C@@H](O)C(=O)N1CCC2(CCNC2=O)CC1 | 36.7 | 640 (≈ 254 µg/mL) | 1290 (≈ 513 µg/mL) | 320 (≈ 127 µg/mL) | 80 (≈ 31.8 µg/mL) | 320 (≈ 127 µg/mL) | 1290 (≈ 513 µg/mL) | 640 (≈ 254 µg/mL) | 640 (≈ 254 µg/mL) | 640 (≈ 254 µg/mL) | 320 (≈ 127 µg/mL) | 640 (≈ 254 µg/mL) | 
2 | O=C(Nc1ccc(Br)cc1)[C@H](O)[C@@H](O)C(=O)N1CCC2(CCNC2=O)CC1 | 74.7 | 290 (≈ 128 µg/mL) | 1160 (≈ 511 µg/mL) | 290 (≈ 128 µg/mL) | 1160 (≈ 511 µg/mL) | 150 (≈ 66 µg/mL) | 1160 (≈ 511 µg/mL) | 580 (≈ 255 µg/mL) | 580 (≈ 255 µg/mL) | 1160 (≈ 511 µg/mL) | 290 (≈ 128 µg/mL) | 1160 (≈ 511 µg/mL) | 180
3 | C[C@H]1COc2c(N3CCN(C)CC3)c(F)cc3c(=O)c(C(=O)O)cn1c23 [LEVOFLOXACIN] |  |  |  |  |  |  | 11 (≈ 3.98 µg/mL) | 22 (≈ 7.95 µg/mL) | 11 (≈ 3.98 µg/mL) | 11 (≈ 3.98 µg/mL) | 3 (≈ 1.08 µg/mL) | 5 (≈ 1.81 µg/mL) | 
4 | Cc1ccccc1NC(=O)[C@H](O)[C@@H](O)C(=O)N1CCC2(CCNC2=O)CC1 | 49.8 | 1360 (≈ 511 µg/mL) | 340 (≈ 128 µg/mL) | 170 (≈ 63.8 µg/mL) | 680 (≈ 255 µg/mL) | 1360 (≈ 511 µg/mL) | 680 (≈ 255 µg/mL) | 680 (≈ 255 µg/mL) | 340 (≈ 128 µg/mL) | 680 (≈ 255 µg/mL) | 340 (≈ 128 µg/mL) | 680 (≈ 255 µg/mL) | 
5 | O=C(Nc1ccc([N+](=O)[O-])cc1)[C@H](O)[C@@H](O)C(=O)N1CCC2(CCNC2=O)CC1 | 58.4 | 1260 (≈ 512 µg/mL) | 310 (≈ 126 µg/mL) | 1260 (≈ 512 µg/mL) | 1260 (≈ 512 µg/mL) | 1260 (≈ 512 µg/mL) | 630 (≈ 256 µg/mL) | 160 (≈ 65 µg/mL) | 1260 (≈ 512 µg/mL) | 310 (≈ 126 µg/mL) | 630 (≈ 256 µg/mL) | 310 (≈ 126 µg/mL) | 390
6 | Cc1ccc(NC(=O)[C@H](O)[C@@H](O)C(=O)N2CCC3(CCNC3=O)CC2)cc1 | 48.7 | 340 (≈ 128 µg/mL) | 680 (≈ 255 µg/mL) | 680 (≈ 255 µg/mL) | 340 (≈ 128 µg/mL) | 170 (≈ 63.8 µg/mL) | 340 (≈ 128 µg/mL) | 170 (≈ 63.8 µg/mL) | 680 (≈ 255 µg/mL) | 340 (≈ 128 µg/mL) | 170 (≈ 63.8 µg/mL) | 680 (≈ 255 µg/mL) | 
7 | O=C(Nc1ccccc1Cl)[C@H](O)[C@@H](O)C(=O)N1CCC2(CCNC2=O)CC1 | 85.5 | 1290 (≈ 511 µg/mL) | 320 (≈ 127 µg/mL) | 1290 (≈ 511 µg/mL) | 320 (≈ 127 µg/mL) | 1290 (≈ 511 µg/mL) | 320 (≈ 127 µg/mL) | 160 (≈ 63.3 µg/mL) | 650 (≈ 257 µg/mL) | 320 (≈ 127 µg/mL) | 320 (≈ 127 µg/mL) | 160 (≈ 63.3 µg/mL) | 140
8 | O=C(Nc1cccc(Br)c1)[C@H](O)[C@@H](O)C(=O)N1CCC2(CCNC2=O)CC1 | 79.4 | 290 (≈ 128 µg/mL) | 1160 (≈ 511 µg/mL) | 580 (≈ 255 µg/mL) | 290 (≈ 128 µg/mL) | 280 (≈ 123 µg/mL) | 290 (≈ 128 µg/mL) | 290 (≈ 128 µg/mL) | 1160 (≈ 511 µg/mL) | 580 (≈ 255 µg/mL) | 580 (≈ 255 µg/mL) | 290 (≈ 128 µg/mL) | 150
9 | NC(=O)OC[C@H](O)[C@@H](O)[C@H](N)C(=O)N[C@H](C(=O)O)[C@H]1O[C@@H](n2cc(CO)c(=O)[nH]c2=O)[C@H](O)[C@@H]1O [POLYOXIN B] | 85 | 32 (≈ 16.2 µg/mL) | 32 (≈ 16.2 µg/mL) | 129 (≈ 65.5 µg/mL) | 64 (≈ 32.5 µg/mL) | 32 (≈ 16.2 µg/mL) |  |  |  |  |  |  | 80
10 | COc1cccc(NC(=O)[C@H](O)[C@@H](O)C(=O)N2CCC3(CCNC3=O)CC2)c1 | 47.5 | 160 (≈ 62.6 µg/mL) | 330 (≈ 129 µg/mL) | 650 (≈ 254 µg/mL) | 330 (≈ 129 µg/mL) | 650 (≈ 254 µg/mL) | 650 (≈ 254 µg/mL) | 650 (≈ 254 µg/mL) | 330 (≈ 129 µg/mL) | 650 (≈ 254 µg/mL) | 650 (≈ 254 µg/mL) | 650 (≈ 254 µg/mL) | 
